Data on three substances can be found in patent publication US5635594A, “Gallinacins - antibiotic peptides” (University of California, Los Angeles, priority 1994, dated 1997).

Where no end group is shown, it is not given here.

For this assay, the system named is Candida albicans strain 820. The experiment in a line: ultrasensitive radial diffusion assay in agarose gels, Candida. In kind it is cell-based. Conditions: underlay agar pH 7.4, overnight incubation, FIG. 5c. The protocol:
Aliquots of these column fractions were dried by vacuum centrifugation, resuspended in a small volume (approximately 17 μl) of 0.01% HOAc and 5 μl samples were tested for antimicrobial activity against Escherichia coli ML-35, Listeria monocytogenes strain EGD and Candida albicans strain 820, by the ultrasensitive radial diffusion technique described by Lehrer, R. I. et al. J Immunol Meth (1991) 137:167-173. […] A 1 mm diameter clear zone around the sample well after overnight incubation corresponded to 10 units of microbicidal activity.
The radial diffusion assay in agarose gels described in Example 1 was also used to test the activity of the purified gallinacins. FIGS. 5a, 5b and 5c show the results against three test organisms in units described as above. Rabbit defensin (NP-1) and human defensin (HNP-1) were used as controls.
As for “Gal1: 39-residue antimicrobial peptide isolated from chicken neutrophils, six cysteines in three intramolecular disulfide bonds”, the “antifungal activity against Candida albicans” value is reported as “effective”. In the case of “Gal1α: antimicrobial peptide isolated from chicken neutrophils; differs from Gal1 only in positions 10, 20 and 32” it was “effective”. With “Gal2: 36-residue antimicrobial peptide isolated from chicken neutrophils, six cysteines in three intramolecular disulfide bonds (LFCKGGSCHFGGCPSHLIKVGSCFGFRSCCKWPWNA; not fully specified (residues 3, 8, 13, 23, 29, 30, bridges); also: native peptide: three intramolecular disulfides, pairing not given here)”, the “antifungal activity against Candida albicans” value is “relatively poor activity”.
